Results reported in patent US6030969A, “5,6,7-trisubstituted-4-aminopyrido[2,3-D] pyrimidine compounds” (Abbott Laboratories, priority 1998, dated 2000).
Structures can show the parent of a compound that is named as a salt.

biological target: adenosine kinase (Homo sapiens, UniProt P55263); experiment: Inhibition of adenosine kinase in vitro; type: biochemical; settings: Table 1, read-out: IC50, Inhibition of Adenosine Kinase by Representative Compounds of the Invention
Text: The adenosine kinase to be inhibited can be located in vitro, in situ or in vivo. Where the adenosine kinase is located in vitro, adenosine kinase is contacted with the inhibitor compound, typically by adding the compound to an aqueous solution containing the enzyme, radiolabeled substrate adenosine, magnesium chloride and ATP. The enzyme can exist in intact cells or in isolated subcellular fractions containing the enzyme. The enzyme is then maintained in the presence of the inhibitor for a period of time and under suitable physiological conditions. Means for determining maintenance times are well known in the art and depend inter alia on the concentrations of enzyme and the physiological conditions. Suitable physiological conditions are those necessary to maintain adenosine kinase viability and include temperature, acidity, tonicity and the like. Inhibition of adenosine kinase can be performed, by example, according to standard procedures well known in the art (Yamada, et al., Comp. Biochem. Physiol. 1982, 71B: 367-372). […] In vitro adenosine kinase activity can be measured using any of the standard procedures well known in the art. By way of example, cells containing adenosine kinase, such as IMR-32 human neuroblastoma cells, are cultured in the presence and absence of an inhibitor. Inhibition is measured as the ability to inhibit phosphorylation of endogenous or externally applied ^14 C-adenosine by these cells. The cells can be intact or broken. The specificity of adenosine kinase inhibitory activity is determined by studying the effects of inhibitors on adenosine A1 and A2α receptor binding, adenosine deaminase activity and adenosine transport. Numerous inhibitor compounds of the present invention were tested in vitro and found to inhibit adenosine kinase activity.

Sequence of adenosine kinase (P55263 whole entry): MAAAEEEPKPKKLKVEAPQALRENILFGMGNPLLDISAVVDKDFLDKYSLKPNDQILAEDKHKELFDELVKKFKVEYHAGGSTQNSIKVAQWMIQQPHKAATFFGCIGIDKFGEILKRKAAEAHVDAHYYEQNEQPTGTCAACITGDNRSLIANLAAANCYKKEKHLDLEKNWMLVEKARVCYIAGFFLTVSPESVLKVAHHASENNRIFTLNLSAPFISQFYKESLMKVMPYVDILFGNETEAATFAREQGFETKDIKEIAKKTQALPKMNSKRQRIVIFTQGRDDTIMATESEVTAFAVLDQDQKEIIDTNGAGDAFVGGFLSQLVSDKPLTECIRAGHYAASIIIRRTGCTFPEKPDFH

| Compound | IC50 [nM] |
| --- | --- |
| CCCCCc1c(-c2ccc(N(C)C)cc2)nc2ncnc(N)c2c1-c1ccc(F)c(Br)c1 [Example 1, 4-amino-5-(3-bromo-4-fluorophenyl)-6-pentyl-7-(4-(dimethylamino)phenyl)pyrido[2,3-d]pyrimidine] | 80 |
| CCc1c(-c2cccs2)nc2ncnc(N)c2c1-c1cccc(Br)c1 [Example 4, 4-amino-5-(3-bromophenyl)-6-ethyl-7-(thiophen-2-yl)pyrido[2,3-d]pyrimidine] | 3 |
| COc1ccc(-c2c(-c3cccs3)nc3ncnc(N)c3c2-c2cccc(Br)c2)cc1OC [Example 6, 4-amino-5-(3-bromophenyl)-6-(3,4-dimethoxyphenyl)-7-(thiophen-2-yl)pyrido[2,3-d]pyrimidine] | 1 |
| CCOC(=O)Cc1c(-c2cccs2)nc2ncnc(N)c2c1-c1cccc(Br)c1 [Example 8, 4-amino-5-(3-bromophenyl)-6-ethoxycarbonylmethyl-7-(thiophen-2-yl)pyrido[2,3-d]pyrimidine hydrochloride] | 3 |
| COc1cccc(Cc2c(-c3cccs3)nc3ncnc(N)c3c2-c2cccc(Br)c2)c1 [Example 9, 4-amino-5-(3-bromophenyl)-6-(3-methoxyphenylmethyl)-7-(thiophen-2-yl)pyrido[2,3-d]pyrimidine hydrochloride] | 23 |
| COc1ccc(-c2c(-c3cccs3)nc3ncnc(N)c3c2-c2cc(Br)cs2)cc1OC [Example 11, 4-amino-5-(4-bromothiophen-2-y)-6-(3,4-dimethoxyphenyl)-7-(thiophen-2-yl)pyrido[2,3-d]pyrimidine hydrochloride] | 0.3 |
| COc1ccc(-c2c(-c3cccs3)nc3ncnc(N)c3c2-c2cccc(Cl)c2)cc1OC [Example 12, 4-amino-5-(3-chlorophenyl)-6-(3,4-dimethoxyphenyl)-7-(thiophen-2-yl)pyrido[2,3-d]pyrimidine hydrochloride] | 1 |
| COCCN(C)c1ccc(-c2nc3ncnc(N)c3c(-c3cc(Br)cs3)c2-c2ccc(OC)c(OC)c2)cc1.Cl [Example 19, 4-amino-5-(4-bromothiophen-2-yl)-6-(3,4-dimethoxyphenyl)-7-(4-(N-methyl-N-(2-methoxyethyl)amino)phenyl)pyrido [2,3-d]pyrimidine hydrochloride] | 0.1 |
| CC(C)c1ccc(-c2c(-c3ccc(N(C)C)cc3)nc3ncnc(N)c3c2-c2ccc(C(C)C)cc2)cc1 [Example 25, 4-amino-5,6-(bis-4-(2-propyl)phenyl)-7-(4-dimethylaminophenyl)pyrido[2.3-d]pyrimidine] | 4 |
| COCCN(C)c1ccc(-c2nc3ncnc(N)c3c(-c3ccccc3)c2-c2ccccc2)cc1 [Example 26, 4-amino-5-phenyl-6-phenyl-7-(4-(N-methyl-N-(2-methoxyethyl)amino)phenyl)pyrido[2,3-d]pyrimidine hydrochloride] | 5 |
| CN(C)c1ccc(-c2nc3ncnc(N)c3c(-c3ccccc3)c2-c2ccccc2)cc1.Cl.Cl [Example 27, 4-amino-5,6-diphenyl-7-(4-dimethylaminophenyl)pyrido [2,3-d]pyrimidine dihydrochloride] | 9 |
| Nc1ncnc2nc(-c3ccc(N4CCOCC4)nc3)c(-c3ccc(F)cc3)c(-c3cccc(Br)c3)c12 [Example 39, 4-amino-5-(3-bromophenyl)-6-(4-fluorophenyl)-7-(6-morpholinyl-3-pyridinyl)pyrido[2,3-d]pyrimidine hydrochloride] | 5 |
| Nc1ncnc2nc(-c3ccc(N4CCOCC4)nc3)c(-c3ccccc3)c(-c3ccccc3)c12 [Example 40, 4-amino-5-phenyl-6-phenyl-7-(6-morpholinyl-3-pyridinyl)pyrido [2,3-d]pyrimidine hydrochloride] | 3 |
| Nc1ncnc2nc(-c3ccc(N4CCOCC4)nc3)c(-c3ccccc3)c(-c3cccc(Br)c3)c12 [Example 41, 4-amino-5-(3-bromophenyl)-6-phenyl-7-(6-morpholinyl-3-pyridinyl)pyrido [2,3-d]pyrimidine hydrochloride] | 2 |

system: male CF1 mice (hot plate analgesia); experiment: Mouse hot plate assay (hot plate test of analgesia); type: in vivo; settings: 30 μmol/kg i.p., thirty minutes after pretreatment, 55° C. hot plate; vehicle alone 72.76±10.51 seconds
Method: The compounds of the invention were tested in vivo in the hot plate test of analgesia in mammals such as mice. […] Mouse Hot Plate Assay […] At the end of the pretreatment period, the mice are placed in an Omnitech Electronics Automated 16 Animal Hot Plate Analgesia Monitor (Columbus, Ohio; Model […]) in individual, 9.8×7.2×15.3 cm (l×w×h) plastic enclosures on top of a copper plate warmed to 55° C. […] sensors located near the top of each enclosure record beam crossings that occur as the mice jump off of the heated surface. Latency times for each jump are automatically recorded, and latency to both the first and tenth jumps are used for data analysis.

| Compound | latency to 10th jump [s] |
| --- | --- |
| COCCN(C)c1ccc(-c2nc3ncnc(N)c3c(-c3cc(Br)cs3)c2-c2ccc(OC)c(OC)c2)cc1.Cl [Example 19, 4-amino-5-(4-bromothiophen-2-yl)-6-(3,4-dimethoxyphenyl)-7-(4-(N-methyl-N-(2-methoxyethyl)amino)phenyl)pyrido [2,3-d]pyrimidine hydrochloride] | 142.13 |
| CN(C)c1ccc(-c2nc3ncnc(N)c3c(-c3ccccc3)c2-c2ccccc2)cc1.Cl.Cl [Example 27, 4-amino-5,6-diphenyl-7-(4-dimethylaminophenyl)pyrido [2,3-d]pyrimidine dihydrochloride] | 154.86 |
